Laboratory results: ChEMBL document CHEMBL5442175, “EUbOPEN Chemogenomics Library - PDSP Secondary Binding” (2024)
Counter-ions that a name gives are not always drawn.

Assays:
[1] = target: T1, Muscarinic acetylcholine receptor M5 (Homo sapiens, UniProt P08912); experiment: (§1) PDSP Secondary Binding target: CHRM5 - Compounds are tested at 10 uM concentration, plate are incubated at room temperature in the dark for 90 minutes. Reaction are stopped by vacuum filtration onto 0.3% polyethyleneimine soaked filter mats using Filtermate harvester. Scintillation cocktail is then melted onto microwave-dried filters on a hot plate and the radio activity is counted in Microbia counter.
T1 sequence (P08912 whole entry): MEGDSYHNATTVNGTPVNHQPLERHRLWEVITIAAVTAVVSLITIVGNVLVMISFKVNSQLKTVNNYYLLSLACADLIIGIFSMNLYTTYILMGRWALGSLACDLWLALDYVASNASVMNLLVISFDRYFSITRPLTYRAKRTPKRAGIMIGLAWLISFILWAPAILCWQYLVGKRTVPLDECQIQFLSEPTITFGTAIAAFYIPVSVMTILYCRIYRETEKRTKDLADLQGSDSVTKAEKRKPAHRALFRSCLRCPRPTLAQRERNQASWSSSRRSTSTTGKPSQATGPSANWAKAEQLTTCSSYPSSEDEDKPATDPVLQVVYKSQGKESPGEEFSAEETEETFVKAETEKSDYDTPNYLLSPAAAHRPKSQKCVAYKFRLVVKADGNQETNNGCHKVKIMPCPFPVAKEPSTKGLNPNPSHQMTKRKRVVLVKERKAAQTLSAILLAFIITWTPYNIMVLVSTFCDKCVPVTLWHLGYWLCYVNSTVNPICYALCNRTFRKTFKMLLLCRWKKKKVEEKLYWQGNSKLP

[2] = target: T2, Alpha-2C adrenergic receptor (Homo sapiens, UniProt P18825); experiment: as §1, with “ADRA2C” for “CHRM5”
T2 sequence (P18825 whole entry): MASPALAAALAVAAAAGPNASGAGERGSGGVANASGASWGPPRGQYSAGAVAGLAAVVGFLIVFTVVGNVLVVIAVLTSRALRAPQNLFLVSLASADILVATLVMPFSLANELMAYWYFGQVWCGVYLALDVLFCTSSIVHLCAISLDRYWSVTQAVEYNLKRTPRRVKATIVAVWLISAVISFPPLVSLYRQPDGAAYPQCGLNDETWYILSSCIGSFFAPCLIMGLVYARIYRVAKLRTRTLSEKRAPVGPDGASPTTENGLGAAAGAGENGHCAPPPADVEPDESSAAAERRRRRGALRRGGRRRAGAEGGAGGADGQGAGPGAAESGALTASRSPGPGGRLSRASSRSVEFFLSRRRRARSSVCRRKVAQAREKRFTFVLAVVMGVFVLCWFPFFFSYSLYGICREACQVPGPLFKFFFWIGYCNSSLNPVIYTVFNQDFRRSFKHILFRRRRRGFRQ

[3] = target: D(1B) dopamine receptor (Homo sapiens, UniProt P21918); experiment: as §1, with “DRD5” for “CHRM5”
[4] = target: Sodium-dependent noradrenaline transporter (Homo sapiens, UniProt P23975); experiment: as §1, with “SLC6A2” for “CHRM5”
[5] = target: Sodium-dependent dopamine transporter (Homo sapiens, UniProt Q01959); experiment: as §1, with “SLC6A3” for “CHRM5”
[6] = target: D(1A) dopamine receptor (Homo sapiens, UniProt P21728); experiment: as §1, with “DRD1” for “CHRM5”
[7] = target: T3, Muscarinic acetylcholine receptor M1 (Homo sapiens, UniProt P11229); experiment: as §1, with “CHRM1” for “CHRM5”
T3 sequence (P11229 whole entry): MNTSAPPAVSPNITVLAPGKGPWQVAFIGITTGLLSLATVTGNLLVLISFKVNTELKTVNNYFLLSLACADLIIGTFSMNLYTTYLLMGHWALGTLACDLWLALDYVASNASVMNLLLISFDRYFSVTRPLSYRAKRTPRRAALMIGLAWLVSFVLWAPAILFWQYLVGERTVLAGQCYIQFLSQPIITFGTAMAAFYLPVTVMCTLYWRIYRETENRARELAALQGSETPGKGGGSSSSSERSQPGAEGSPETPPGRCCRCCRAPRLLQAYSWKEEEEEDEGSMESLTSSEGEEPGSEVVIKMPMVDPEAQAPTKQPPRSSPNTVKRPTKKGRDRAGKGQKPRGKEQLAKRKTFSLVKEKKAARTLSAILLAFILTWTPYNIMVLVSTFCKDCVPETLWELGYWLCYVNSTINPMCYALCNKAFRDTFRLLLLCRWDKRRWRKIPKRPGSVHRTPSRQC

[8] = target: Sodium-dependent serotonin transporter (Homo sapiens, UniProt P31645); experiment: as §1, with “SLC6A4” for “CHRM5”
[9] = target: Histamine H1 receptor (Homo sapiens, UniProt P35367); experiment: as §1, with “HRH1” for “CHRM5”
[10] = target: Mu-type opioid receptor (Homo sapiens, UniProt P35372); experiment: as §1, with “OPRM1” for “CHRM5”
[11] = target: 5-hydroxytryptamine receptor 2B (Homo sapiens, UniProt P41595); experiment: as §1, with “HTR2B” for “CHRM5”
[12] = target: D(2) dopamine receptor (Homo sapiens, UniProt P14416); experiment: as §1, with “DRD2” for “CHRM5”
[13] = target: 5-hydroxytryptamine receptor 1E (Homo sapiens, UniProt P28566); experiment: as §1, with “HTR1E” for “CHRM5”
5-hydroxytryptamine receptor 1E, sequence (P28566 whole entry): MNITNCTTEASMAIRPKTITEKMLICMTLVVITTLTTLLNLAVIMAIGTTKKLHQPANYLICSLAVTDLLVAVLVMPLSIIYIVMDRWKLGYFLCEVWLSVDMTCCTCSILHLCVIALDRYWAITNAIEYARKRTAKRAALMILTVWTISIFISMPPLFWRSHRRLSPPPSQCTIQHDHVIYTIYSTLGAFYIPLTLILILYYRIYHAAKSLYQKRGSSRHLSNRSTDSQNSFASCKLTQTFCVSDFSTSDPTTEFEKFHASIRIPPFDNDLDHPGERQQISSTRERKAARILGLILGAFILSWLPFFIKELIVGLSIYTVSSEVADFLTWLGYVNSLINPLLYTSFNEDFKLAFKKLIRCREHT

Histamine H1 receptor, sequence (P35367 whole entry): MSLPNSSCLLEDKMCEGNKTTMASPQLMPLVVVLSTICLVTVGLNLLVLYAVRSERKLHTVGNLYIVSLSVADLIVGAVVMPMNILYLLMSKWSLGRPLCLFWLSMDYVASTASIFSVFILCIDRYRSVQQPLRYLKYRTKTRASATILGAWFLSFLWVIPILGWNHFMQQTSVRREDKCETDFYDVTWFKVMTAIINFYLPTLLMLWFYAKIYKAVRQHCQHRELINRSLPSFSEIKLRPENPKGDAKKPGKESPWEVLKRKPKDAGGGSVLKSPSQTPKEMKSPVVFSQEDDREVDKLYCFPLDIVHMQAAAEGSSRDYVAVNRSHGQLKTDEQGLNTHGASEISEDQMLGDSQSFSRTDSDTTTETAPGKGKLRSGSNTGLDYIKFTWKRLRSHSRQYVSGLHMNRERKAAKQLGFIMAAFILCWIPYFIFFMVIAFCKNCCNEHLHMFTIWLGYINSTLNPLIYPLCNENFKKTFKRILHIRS
D(1A) dopamine receptor, sequence (P21728 whole entry): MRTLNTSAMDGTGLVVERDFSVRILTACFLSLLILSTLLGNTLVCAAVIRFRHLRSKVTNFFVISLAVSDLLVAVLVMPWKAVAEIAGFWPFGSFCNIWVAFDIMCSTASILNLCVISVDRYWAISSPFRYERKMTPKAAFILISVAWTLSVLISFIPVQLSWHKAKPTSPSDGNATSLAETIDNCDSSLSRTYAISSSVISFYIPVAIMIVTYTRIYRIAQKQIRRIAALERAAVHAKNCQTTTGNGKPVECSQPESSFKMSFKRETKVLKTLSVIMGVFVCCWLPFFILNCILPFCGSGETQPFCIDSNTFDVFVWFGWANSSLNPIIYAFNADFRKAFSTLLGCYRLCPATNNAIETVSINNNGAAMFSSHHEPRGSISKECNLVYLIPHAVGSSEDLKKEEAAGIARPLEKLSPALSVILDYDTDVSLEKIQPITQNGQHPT
Sodium-dependent dopamine transporter, sequence (Q01959 whole entry): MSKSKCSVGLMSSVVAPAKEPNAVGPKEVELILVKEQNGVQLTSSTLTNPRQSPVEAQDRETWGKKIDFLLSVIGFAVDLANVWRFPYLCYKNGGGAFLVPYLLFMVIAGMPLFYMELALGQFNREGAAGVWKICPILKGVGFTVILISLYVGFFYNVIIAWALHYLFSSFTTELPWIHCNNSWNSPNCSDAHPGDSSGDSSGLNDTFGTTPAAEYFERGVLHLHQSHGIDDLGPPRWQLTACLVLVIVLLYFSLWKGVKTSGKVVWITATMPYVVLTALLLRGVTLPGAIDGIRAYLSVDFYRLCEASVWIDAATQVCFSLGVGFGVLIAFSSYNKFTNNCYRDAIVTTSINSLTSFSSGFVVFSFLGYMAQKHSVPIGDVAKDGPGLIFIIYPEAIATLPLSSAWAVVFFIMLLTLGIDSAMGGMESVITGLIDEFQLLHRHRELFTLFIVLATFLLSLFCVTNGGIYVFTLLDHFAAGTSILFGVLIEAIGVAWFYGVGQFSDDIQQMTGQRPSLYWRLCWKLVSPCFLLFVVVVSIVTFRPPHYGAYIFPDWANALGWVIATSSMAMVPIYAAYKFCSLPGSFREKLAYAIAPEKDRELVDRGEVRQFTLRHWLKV
Sodium-dependent noradrenaline transporter, sequence (P23975 whole entry): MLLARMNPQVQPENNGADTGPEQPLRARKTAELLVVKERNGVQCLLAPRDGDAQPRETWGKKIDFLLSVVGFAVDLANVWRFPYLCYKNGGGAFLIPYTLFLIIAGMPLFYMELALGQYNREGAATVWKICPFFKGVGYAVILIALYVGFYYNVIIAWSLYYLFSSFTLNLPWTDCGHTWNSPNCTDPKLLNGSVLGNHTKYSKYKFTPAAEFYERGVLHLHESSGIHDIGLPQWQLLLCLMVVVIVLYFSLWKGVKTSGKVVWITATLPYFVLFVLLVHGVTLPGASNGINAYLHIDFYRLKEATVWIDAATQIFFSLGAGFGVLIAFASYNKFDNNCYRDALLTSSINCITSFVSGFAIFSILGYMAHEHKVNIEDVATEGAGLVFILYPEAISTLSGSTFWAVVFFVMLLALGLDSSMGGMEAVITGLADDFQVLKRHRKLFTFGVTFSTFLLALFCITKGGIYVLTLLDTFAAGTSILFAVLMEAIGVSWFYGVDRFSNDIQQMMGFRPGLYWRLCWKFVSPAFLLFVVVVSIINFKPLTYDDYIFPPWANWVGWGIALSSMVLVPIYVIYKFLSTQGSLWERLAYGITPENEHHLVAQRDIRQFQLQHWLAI
D(1B) dopamine receptor, sequence (P21918 whole entry): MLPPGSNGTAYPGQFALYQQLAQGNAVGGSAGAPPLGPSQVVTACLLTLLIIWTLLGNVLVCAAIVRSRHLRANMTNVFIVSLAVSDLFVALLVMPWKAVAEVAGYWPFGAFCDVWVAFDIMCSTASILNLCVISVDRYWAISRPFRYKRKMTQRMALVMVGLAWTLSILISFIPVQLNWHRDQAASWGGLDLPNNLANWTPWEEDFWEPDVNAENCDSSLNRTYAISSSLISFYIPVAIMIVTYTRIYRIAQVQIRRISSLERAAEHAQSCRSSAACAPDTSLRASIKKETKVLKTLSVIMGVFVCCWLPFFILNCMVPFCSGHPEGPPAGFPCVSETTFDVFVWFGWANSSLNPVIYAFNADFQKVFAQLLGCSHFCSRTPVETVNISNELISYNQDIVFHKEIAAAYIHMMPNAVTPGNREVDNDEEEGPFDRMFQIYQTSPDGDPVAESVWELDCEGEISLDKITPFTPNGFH
5-hydroxytryptamine receptor 2B, sequence (P41595 whole entry): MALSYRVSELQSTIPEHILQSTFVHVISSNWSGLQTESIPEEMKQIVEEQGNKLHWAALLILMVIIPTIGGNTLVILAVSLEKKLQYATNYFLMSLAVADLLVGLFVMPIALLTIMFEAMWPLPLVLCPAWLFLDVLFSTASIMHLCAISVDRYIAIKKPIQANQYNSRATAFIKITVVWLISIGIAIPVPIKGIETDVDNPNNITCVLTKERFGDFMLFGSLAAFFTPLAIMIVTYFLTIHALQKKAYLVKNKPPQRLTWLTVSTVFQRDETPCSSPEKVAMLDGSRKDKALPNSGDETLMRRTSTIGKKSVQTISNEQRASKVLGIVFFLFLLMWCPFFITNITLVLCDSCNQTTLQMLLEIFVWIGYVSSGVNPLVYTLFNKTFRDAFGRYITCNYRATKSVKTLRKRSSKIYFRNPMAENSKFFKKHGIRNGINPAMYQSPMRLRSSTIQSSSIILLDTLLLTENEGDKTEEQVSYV
Mu-type opioid receptor, sequence (P35372 whole entry): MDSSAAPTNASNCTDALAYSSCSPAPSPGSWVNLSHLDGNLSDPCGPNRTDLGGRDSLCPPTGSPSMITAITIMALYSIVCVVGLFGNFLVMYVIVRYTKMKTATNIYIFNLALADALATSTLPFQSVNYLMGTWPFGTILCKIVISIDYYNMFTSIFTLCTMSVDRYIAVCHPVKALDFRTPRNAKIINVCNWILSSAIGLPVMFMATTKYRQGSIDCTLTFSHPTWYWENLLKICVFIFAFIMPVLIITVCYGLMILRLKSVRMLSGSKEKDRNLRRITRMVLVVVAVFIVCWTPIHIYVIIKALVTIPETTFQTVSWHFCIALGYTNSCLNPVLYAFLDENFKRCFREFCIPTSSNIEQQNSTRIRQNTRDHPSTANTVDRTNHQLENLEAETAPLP
D(2) dopamine receptor, sequence (P14416 whole entry): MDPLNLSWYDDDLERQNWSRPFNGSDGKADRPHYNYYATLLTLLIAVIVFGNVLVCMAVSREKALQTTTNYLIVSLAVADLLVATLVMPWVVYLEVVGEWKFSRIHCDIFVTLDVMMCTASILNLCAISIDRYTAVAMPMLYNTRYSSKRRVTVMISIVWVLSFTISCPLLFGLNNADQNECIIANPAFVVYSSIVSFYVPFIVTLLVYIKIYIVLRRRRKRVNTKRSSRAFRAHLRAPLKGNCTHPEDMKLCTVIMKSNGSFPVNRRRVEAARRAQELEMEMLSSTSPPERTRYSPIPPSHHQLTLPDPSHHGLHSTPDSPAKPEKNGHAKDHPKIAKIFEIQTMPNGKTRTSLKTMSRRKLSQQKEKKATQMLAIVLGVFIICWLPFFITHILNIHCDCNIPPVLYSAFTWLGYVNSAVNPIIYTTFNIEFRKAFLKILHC
Sodium-dependent serotonin transporter, sequence (P31645 whole entry): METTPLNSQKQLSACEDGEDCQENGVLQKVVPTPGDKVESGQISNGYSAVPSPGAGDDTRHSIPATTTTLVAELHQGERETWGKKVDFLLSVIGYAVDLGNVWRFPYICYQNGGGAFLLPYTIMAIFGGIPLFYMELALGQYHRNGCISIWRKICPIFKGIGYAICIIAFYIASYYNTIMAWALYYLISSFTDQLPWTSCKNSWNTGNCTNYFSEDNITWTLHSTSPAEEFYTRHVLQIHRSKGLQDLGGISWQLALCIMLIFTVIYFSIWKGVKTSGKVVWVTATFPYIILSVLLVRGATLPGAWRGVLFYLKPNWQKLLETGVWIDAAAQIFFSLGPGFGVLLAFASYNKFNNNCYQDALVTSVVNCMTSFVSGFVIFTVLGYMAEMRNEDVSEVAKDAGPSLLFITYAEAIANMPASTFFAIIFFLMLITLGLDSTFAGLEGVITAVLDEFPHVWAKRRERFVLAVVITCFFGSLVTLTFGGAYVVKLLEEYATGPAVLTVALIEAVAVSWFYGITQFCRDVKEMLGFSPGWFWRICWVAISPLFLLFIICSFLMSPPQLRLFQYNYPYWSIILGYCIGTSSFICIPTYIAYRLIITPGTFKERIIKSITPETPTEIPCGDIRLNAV

| Structure (SMILES) | Ki [1] [µM] | Ki [2] [µM] | Ki [3] [µM] | Ki [4] [µM] | Ki [5] [µM] | Ki [6] [µM] | Ki [7] [µM] | Ki [8] [µM] | Ki [9] [µM] | Ki [10] [µM] | Ki [11] [µM] | Ki [12] [µM] | Ki [13] [µM] |
| --- | --- | --- | --- | --- | --- | --- | --- | --- | --- | --- | --- | --- | --- |
| CN(C)C(=O)N[C@H]1CC[C@H](CCN2CCN(c3cccc(Cl)c3Cl)CC2)CC1 [CARIPRAZINE HYDROCHLORIDE] | 1.43 | 0.234 |  |  |  |  |  |  |  |  |  |  |  |
| Cc1nc(-c2ccc(-c3ccc(C(=O)N4CCc5cc6c(cc54)C4(CCN(C)CC4)CO6)cc3)c(C)c2)no1 [SB-224289] | 0.344 |  | 1.08 | 1.73 | 1.18 | 0.369 | 1.26 |  |  |  |  |  |  |
| CN1CCN(c2ccc(Nc3c4ccccc4nc4ccccc34)cc2)CC1 |  |  |  | 0.12 | 0.451 | 4.54 | 0.717 | 1.15 | 0.403 |  |  |  |  |
| CCCCCNC(=N)N/N=C/c1c[nH]c2ccc(OC)cc12 [TEGASEROD MALEATE] |  |  | 4.12 |  |  |  |  |  |  | 2.85 | 0.0156 | 0.297 |  |
| Cc1ccc2c(c1)c1c(n2CCc2ccc(C)nc2)CCN(C)C1 [LATREPIRDINE] |  | 2.92 |  |  |  |  |  |  |  |  | 0.603 | 1.55 | 5.57 |
| Cc1nc2sccn2c(=O)c1CCN1CCC(=C(c2ccc(F)cc2)c2ccc(F)cc2)CC1 [RITANSERIN] |  | 0.375 | 0.493 | 0.685 | 0.318 | 0.33 |  | 0.568 | 0.0122 | 0.344 |  | 0.184 | 0.556 |
| Clc1cccc(COc2cncc(N3CCNCC3)n2)c1 | 0.293 |  |  |  |  |  | 0.955 |  | 1.45 |  | 0.00994 |  | 1.45 |
| S=C(NCCCc1c[nH]cn1)NCCCN(Cc1ccc(Cl)c(Cl)c1)c1ccc(Br)cn1 | 0.491 | 0.536 | 1.98 | 0.618 | 0.295 | 1.72 | 2.58 | 0.209 | 0.649 |  |  |  |  |
| CCc1nn(CCCN2CCN(c3cccc(Cl)c3)CC2)c(=O)n1CCOc1ccccc1 [NEFAZODONE HYDROCHLORIDE] |  | 0.359 |  |  |  |  |  |  | 0.125 |  |  | 0.736 |  |
| OCc1cc(C(O)CNCCCCCCOCCCCc2ccccc2)ccc1O (configuration not stated) [SALMETEROL] | 0.971 |  |  | 0.382 | 0.149 |  |  |  |  |  |  |  |  |
| O=S1(=O)c2cccc3cccc(c23)N1CCCN1CCN(c2ccc(F)cc2)CC1 [FANANSERIN] |  | 1.03 |  | > 10 | 2.69 |  |  | 1.1 | 0.0306 |  |  |  |  |
| O=c1ccc2ccc(OCCCCN3CCN(c4cccc5sccc45)CC3)cc2[nH]1 [BREXPIPRAZOLE] |  | 0.0599 | 0.344 | 0.689 | 0.364 | 0.0375 |  | 0.0656 | 0.00888 |  |  | 0.00599 | 0.478 |
| COc1cc(-n2cnc3cc(-c4ccc(Cl)cc4)sc3c2=O)ccc1OCCN1CCCC1 | 2.64 |  |  |  |  |  | 1.24 | > 10 |  |  | 0.528 |  |  |
| CN1C[C@H](C(=O)N[C@]2(C)O[C@@]3(O)[C@@H]4CCCN4C(=O)[C@H](Cc4ccccc4)N3C2=O)C[C@@H]2c3cccc4[nH]cc(c34)C[C@H]21 [DIHYDROERGOTAMINE MESYLATE] |  |  | 2.95 |  |  |  |  |  |  | 0.154 |  | 0.0609 | 0.682 |
| COc1ccc(NC(=O)c2ccc(-c3ccc(-c4noc(C)n4)cc3C)cc2)cc1OCCN(C)C |  | 0.704 |  | 0.664 | 0.984 |  | 1.91 | 0.833 |  |  |  |  | 0.981 |
| Cc1c(P(=S)(c2ccccc2)c2ccccc2)n2ccccc2[n+]1C/C=C/c1ccccc1 | 0.51 | 0.222 |  | 0.956 |  |  | 1.18 |  | > 10 | 0.102 |  |  |  |
| CCc1ccc(OCc2ccccc2C(=O)Nc2ccc3nc(C)cc(N)c3c2)cc1 |  |  |  |  |  |  | 2.33 |  |  | 0.495 | 0.227 |  |  |
| COC(=O)C1=C(C)NC(C)=C(C(=O)OCCCN2CCC(c3ccccc3)(c3ccccc3)CC2)[C@H]1c1cccc([N+](=O)[O-])c1 [NIGULDIPINE] | 0.718 |  | 1.24 | 0.857 | 0.591 | 0.37 |  | 0.862 | 0.0897 | 0.129 |  | 0.28 |  |
| CN1CCCC(n2nc(Cc3ccc(Cl)cc3)c3ccccc3c2=O)CC1 (configuration not stated) [AZELASTINE HYDROCHLORIDE] |  |  |  |  |  | 0.577 |  |  |  |  |  | 1.18 | 5.37 |
| C[C@H](Cc1cc2c(c(C(N)=O)c1)N(CCCO)CC2)NCCOc1ccccc1OCC(F)(F)F [SILODOSIN] |  | 0.36 |  |  |  |  |  |  | 3.53 |  | 2.09 | 0.989 |  |
| N#Cc1ccc2[nH]cc(CCCCN3CCN(c4ccc5oc(C(N)=O)cc5c4)CC3)c2c1 [VILAZODONE HYDROCHLORIDE] |  | 1.38 |  | 0.0155 | 0.0218 |  |  |  | 0.364 | 0.73 | 0.065 | 0.553 |  |
